Tests used:
BTK WT = BTK WT (Homo sapiens, UniProt Q06187); experiment: Btk cell-free kinase assay, BTK WT protein; type: biochemical; details: compound 30 mins at room temperature, then 100 μM ATP 20 min at 37° C.
Text: The BTK wild-type plasmid and the BTK mutant plasmid (C481S) were respectively transfected into SF9 cells (purchased from invitrogen), and after three generations of virus amplification, the P3-generation virus was used to transfect SF9 cells which were collected after 72-hour culture to obtain protein BTK WT and protein BTK C481S, which were then purified.

[1] = tested on: acute myeloid leukemia cell lines MOLM13; experiment: Cell proliferation (Cell Titer-Glo), MOLM13; type: cell-based; details: Homo sapiens, MOLM-13; MOLM13, 72 hours; read-out: Effects on cell proliferation (GI50)
Method: (§1) The selectivity of Compound 1 in inhibiting the proliferation of cancer cells was further evaluated by testing the effect of Btk inhibitors on the growth of cancer cells. […]
(§2) In this example different concentrations (0.000508 μM, 0.00152 μM, 0.00457 μM, 0.0137 μM, 0.0411 μM, 0.123 μM, 0.370 μM, 1.11 μM, 3.33 μM, 10 μM) of Compound 1 and Compound 6 were respectively added into the above cells which were then cultured for 72 hours. The number of viable cells was determined via quantitative determination of ATP in living cells by using Cell Titer-Glo® (Promega, the USA) Chemical Luminescent Cell Viability Assay kit.

[2] = tested on: acute myeloid leukemia cell lines MV4-11; experiment: Cell proliferation (Cell Titer-Glo), MV4-11; type: cell-based; details: Homo sapiens; MV4-11, 72 hours; read-out: Effects on cell proliferation (GI50)
Method: as §1, §2

[3] = tested on: diffuse large B-cell lymphoma cell lines Pfeiffer; experiment: Cell proliferation (Cell Titer-Glo), Pfeiffer; type: cell-based; details: Homo sapiens, 72 hours, read-out: Effects on cell proliferation (GI50)
Method: as §1, §2

B-lymphoma cell Ramos = experiment: Cell proliferation (Cell Titer-Glo), Ramos; type: cell-based; details: Homo sapiens, Romas, 72 hours, read-out: Effects on cell proliferation (GI50)
Method: as §1, §2

[4] = biological target: T1, TEL-EGFR/T790-BaF3 cells (stably expressing TEL-EGFR-C797S point mutation kinase) (Homo sapiens, UniProt P00533, C797S); experiment: Cell proliferation (Cell Titer-Glo), BaF3-tel-EGFR-C797S; type: cell-based; details: BaF3-tel-EGFR-C797S (mouse BaF3 cells), 72 hours; read-out: Effects on cell proliferation (GI50)
T1 construct: expressed in transfected cells; host or cells: mouse BaF3 cells, retroviral MSCV-Puro
Method: as §1, §2

[5] = tested on: Pfeiffer (human diffuse large cell lymphoma B lymphocytes); experiment: Cell apoptosis (PARP and Caspase 3 cleavage) in Pfeiffer; type: cell-based; details: 48 hours
Method: Various concentrations (0.5 μM, 1 μM, 5 μM, 10 μM) of Compound 1 was administered to Pfeiffer (human diffuse large cell lymphoma B lymphocytes, purchased from Cobioer Biosciences Co., LTD (Nanjing)) and U2932 (B-cell lymphoma cells, purchased from ATCC) in order to confirm whether cell death after the administration was caused by apoptosis or necrosis. After 48 hours, effects of Compound 1 on protein cleavage of the DNA repairase poly(ADP-ribose) polymerase (PARP) and Caspase (cysteinyl aspartate-specific proteinase) 3 that were closely related to cell apoptosis was examined.

[6] = tested on: Pfeiffer (human diffuse large cell lymphoma B lymphocytes); experiment: Cell cycle distribution by flow cytometry in Pfeiffer; type: cell-based; details: 10 μM, 48 hours
Method: (§3) Effect of Compound 1 on cell cycle distribution was examined respectively in Pfeiffer (human diffuse large cell lymphoma B lymphocytes, purchased from Cobioer Biosciences Co., LTD (Nanjing)) and U2932 (B-cell lymphoma cells, purchased from ATCC) cells in order to study the growth cycle to which the cells were blocked upon compound administration. The above cells were treated with various concentrations (0.5 μM, 1 μM, 5 μM, 10 μM) of Compound 1, 10 μM of PC132765 and 10 μM of Compound 6 (FIG. 4a) or 1 μM of Compound 6 (FIG. 4b) for 48 hours, and then cells were collected and washed twice with 1×PBS buffer, and fixed with 75% ethanol at −20° C. for 24 hours, washed again with 1×PBS buffer twice, followed by addition of 0.5 mL 1×PBS buffer and 0.5 mL of PI dyeing liquor (purchased from BD Bioscience, USA), and then the cells were placed in the dark at 37° C. for dyeing 15 minutes and the cell cycle distribution was detected by flow cytometry (BD FACS Calibur).
(§4) Experiments shown in FIGS. 4a-4b reflected that Compound 1 influenced the cell cycle of both two cell strains.

[7] = tested on: U2932 (B-cell lymphoma cells); experiment: Cell cycle distribution by flow cytometry in U2932; type: cell-based; details: U2932, 10 μM, 48 hours
Method: as §3, §4

T1 sequence (P00533 712-979 C797S limits assumed): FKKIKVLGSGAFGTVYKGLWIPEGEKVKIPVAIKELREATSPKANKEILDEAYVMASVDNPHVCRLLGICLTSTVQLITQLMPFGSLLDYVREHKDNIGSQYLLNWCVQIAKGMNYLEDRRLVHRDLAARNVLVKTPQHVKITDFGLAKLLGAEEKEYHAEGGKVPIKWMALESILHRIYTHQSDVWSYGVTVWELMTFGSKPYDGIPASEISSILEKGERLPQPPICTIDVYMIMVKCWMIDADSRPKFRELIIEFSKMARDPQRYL
BTK WT, sequence (Q06187 whole entry): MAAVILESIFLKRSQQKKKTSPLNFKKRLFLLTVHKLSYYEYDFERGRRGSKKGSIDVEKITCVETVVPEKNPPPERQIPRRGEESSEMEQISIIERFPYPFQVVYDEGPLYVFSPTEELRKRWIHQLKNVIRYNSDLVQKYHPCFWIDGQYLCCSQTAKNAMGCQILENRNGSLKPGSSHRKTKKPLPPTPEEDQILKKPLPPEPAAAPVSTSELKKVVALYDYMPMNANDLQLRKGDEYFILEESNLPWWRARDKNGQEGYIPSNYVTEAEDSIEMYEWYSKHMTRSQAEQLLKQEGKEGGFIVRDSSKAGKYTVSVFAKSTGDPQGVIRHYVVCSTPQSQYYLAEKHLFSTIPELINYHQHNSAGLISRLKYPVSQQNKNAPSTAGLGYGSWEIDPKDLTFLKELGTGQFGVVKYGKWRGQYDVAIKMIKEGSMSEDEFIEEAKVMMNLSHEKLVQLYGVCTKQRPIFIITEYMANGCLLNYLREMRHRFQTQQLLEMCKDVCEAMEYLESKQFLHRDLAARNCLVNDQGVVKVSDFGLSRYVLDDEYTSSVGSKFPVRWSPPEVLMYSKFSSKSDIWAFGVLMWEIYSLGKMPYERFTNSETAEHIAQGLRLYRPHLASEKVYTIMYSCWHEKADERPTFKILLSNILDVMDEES

Row | SMILES | inhibitory effects against BTK WT (BTK WT) | GI50 [1] [µM] | GI50 [2] [µM] | GI50 [3] [µM] | GI50 (B-lymphoma cell Ramos) [µM] | GI50 [4] [µM] | EC50 (BTK WT; read-out: EC50 against BTK WT protein) [µM] | cleavage of DNA repairase poly(ADP-ribose) polymerase (PARP) ([5]; 10 μM) | cell apoptosis [5] | effect on cell cycle [6] | effect on cell cycle [7]
1 | CCC(=O)Nc1cc(Nc2cc(-c3cccc(NC(=O)c4ccc(C(C)(C)C)cc4)c3C)cn(C)c2=O)ccc1C(=O)N1CCOCC1 [Compound 6, N-(3-(5-((3-propanamide-4-(morpholin-4-carbonyl)phenyl)amino)-1-methyl-6-oxo-1,6-dihydropyridin-3-yl)-2-methylphenyl)-4-(tert-butyl)benzamide] | no inhibitory effects | 4 | 4.8 | > 10 | 4.6 | 1.8 |  |  |  |  | 
2 | C=CC(=O)Nc1cc(Nc2cc(-c3cccc(NC(=O)c4ccc(C(C)(C)C)cc4)c3C)cn(C)c2=O)ccc1C(=O)N1CCOCC1 [Compound 1, N-(3-(5-((3-acrylamide-4-(morpholin-4-carbonyl)phenyl)amino)-1-methyl-6-oxo-1,6-dihydropyridin-3-yl)-2-methylphenyl)-4-(tert-butyl)benzamide] |  | 2.2 | 2.1 | 4.5 | 3.5 | 2.5 | 0.0047 | significant cleavage | could lead to cell apoptosis | significant cell cycle arrest in G0-G1 | significant cell cycle arrest in G0-G1

From patent publication US10669238B2, “Irreversible bruton's tyrosine kinase inhibitor” (HEFEI INSTITUTES OF PHYSICAL SCIENCE, CHINESE ACADEMY OF …, priority 2016, dated 2020)
